From US20240279205A1, “NOVEL BENZIMIDAZOLE DERIVATIVE” (Carna Biosciences, Inc., priority 2020, published 2024)
Structures can show the parent of a compound that is named as a salt.

biological target: T1, human STING (hSTING) (Homo sapiens, UniProt Q86WV6); experiment: Inhibition test of intracellular human STING (hSTING) pathway using SEAP reporter cells (HEK-Blue ISG), stimulation with Compound 3; assay type: cell-based; set-up: hSTING inhibitory activity: scale not given here; details: Compound 3 10 nM stimulation, 21 hours
T1 construct: host or cells: HEK-Blue ISG cells (HEK293-derived SEAP reporter line)
Method: Inhibition test of intracellular human STING (hSTING) pathway using reporter cells
Since STING activates the transcription factor IRF3 upon ligand stimulation, the activity of STING can be evaluated by a reporter assay using a secretory alkaline phosphatase (SEAP reporter) integrated downstream of an IRF-inducible promoter.
That is, the hSTING inhibitory activity of the test compound was evaluated using HEK-Blue™MISG cells (manufactured by Invivogen, #hkb-isg-1) incorporating a SEAP reporter. Activation of hSTING was performed by stimulation with the small molecule ligand Compound 3 as described in the literature (Ramanjulu, J. M., et al., Nature. 2018, 564 (7736), 439-443). HEK-Blue™MISG cells were seeded in a 96-well plate and cultured overnight at 37° C. in a 5% CO2 incubator. To each well of this cell culture plate, a test compound solution adjusted to a final concentration of 0.1 to 10 µM of the test compound was added, cultured for 1 hour in a CO2 incubator, and then Compound 3 (final concentration 10 nM) was added and further cultured in a CO2 incubator for 21 hours. After collecting the culture supernatant of each well, the reporter activity was measured by color development reaction with alkaline phosphatase.
The reporter activity of the test compound non-addition and Compound 3 addition group was set to 100%, and the reporter activity of the test compound non-addition and Compound 3 non-addition group was set to 0%. The IC50 value was determined by regression analysis of the inhibitory rate determined from the reporter activity at each compound concentration and the test compound concentration (logarithm).

T1 sequence (Q86WV6 whole entry H232R): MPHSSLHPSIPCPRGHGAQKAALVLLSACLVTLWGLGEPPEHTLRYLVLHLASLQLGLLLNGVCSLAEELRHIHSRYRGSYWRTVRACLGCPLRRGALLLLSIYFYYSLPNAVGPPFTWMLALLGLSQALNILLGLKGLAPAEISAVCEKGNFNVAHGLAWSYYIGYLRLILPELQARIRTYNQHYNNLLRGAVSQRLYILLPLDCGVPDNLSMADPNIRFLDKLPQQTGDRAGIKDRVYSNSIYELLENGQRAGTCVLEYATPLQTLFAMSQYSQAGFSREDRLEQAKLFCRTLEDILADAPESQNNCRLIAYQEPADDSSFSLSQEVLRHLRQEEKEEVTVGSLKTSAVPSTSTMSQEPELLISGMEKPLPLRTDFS

Structure (SMILES)	hSTING inhibitory activity
Cc1ccc2[nH]c(Nc3c[nH]c4ccc(Cl)nc34)nc2c1C [Embodiment 85, N-(5-Chloro-1H-pyrrolo[3,2-b]pyridin-3-yl)-4,5-dimethyl-1H-benzo[d]imidazol-2-amine]	* *
Clc1ccc2[nH]cc(Nc3nc4cc(-c5ccncc5)ccc4[nH]3)c2n1 [Embodiment 96, N-(5-Chloro-1H-pyrrolo[3,2-b]pyridin-3-yl)-5-(pyridin-4-yl)-1H-benzo[d]imidazol-2-amine]	* *
Clc1ccc2[nH]cc(Nc3nc4cc(-c5cccc(CN6CCOCC6)c5)ccc4[nH]3)c2n1 [Embodiment 99, N-(5-Chloro-1H-pyrrolo[3,2-b]pyridin-3-yl)-5-[3-(morpholinomethyl)phenyl]-1H-benzo[d] imidazol-2-amine]	* *
Clc1ccc2[nH]cc(Nc3nc4cc(C5=CCOCC5)ccc4[nH]3)c2n1 [Embodiment 105, N-(5-chloro-1H-pyrrolo[3,2-b]pyridin-3-yl)-5-(3,6-dihydro-2H-pyran-4-yl)-1H-benzo[d] imidazol-2-amine]	* *
ClC(=CC1CC1)c1ccc2[nH]c(Nc3c[nH]c4ccc(Cl)nc34)nc2c1 [Embodiment 126, N-(5-chloro-1H-pyrrolo[3,2-b]pyridin-3-yl)-5-(1-chloro-2-cyclopropylvinyl)-1H-benzo[d] imidazole-2-amine]	* *
CC=C(Cl)c1ccc2[nH]c(Nc3c[nH]c4ccc(Cl)nc34)nc2c1 [Embodiment 137, N-(5-Chloro-1H-pyrrolo[3,2-b]pyridin-3-yl)-5-(1-chloroprop-1-en-1-yl)-1H-benzo[d]imidazole-2-amine]	* * *

same assay, conditions: Compound 3 10 nM stimulation, 21 hours, read-out: hSTING inhibitory activity

Structure (SMILES)	IC50 [µM]
CN(C)Cc1ccccc1Oc1ccc2[nH]c(Nc3c[nH]c4ccc(Cl)nc34)nc2c1 [Embodiment 83, N-(5-chloro-1H-pyrrolo[3,2-b]pyridin-3-yl)-5-{2-[(dimethylamino)methyl]phenoxy}-1H-benzo [d]imidazole-2-amine formate]	≥ 10
CCCCn1c(Nc2c[nH]c3ccc(Br)nc23)nc2cc(Oc3ccccc3)ccc21 [Embodiment 90, N-(5-bromo-1H-pyrrolo[3,2-b]pyridin-3-yl)-1-butyl-5-phenoxy-1H-benzo[d]imidazol-2-amine]	1 to 10
COCCn1c(Nc2c[nH]c3ccc(Br)nc23)nc2cc(Oc3ccccc3)ccc21 [Embodiment 92, N-(5-bromo-1H-pyrrolo[3,2-b]pyridin-3-yl)-1-(2-methoxyethyl)-5-phenoxy-1H-benzo[d]imidazol-2-amine]	1 to 10
Clc1ccc2[nH]cc(Nc3nc4cc(-c5cccnc5)ccc4[nH]3)c2n1 [Embodiment 97, N-(5-Chloro-1H-pyrrolo[3,2-b]pyridin-3-yl)-5-(pyridin-3-yl)-1H-benzo[d]imidazol-2-amine]	1 to 10
Clc1ccc2[nH]cc(Nc3nc4cc(-c5ccc(CN6CCOCC6)cc5)ccc4[nH]3)c2n1 [Embodiment 98, N-(5-Chloro-1H-pyrrolo[3,2-b]pyridin-3-yl)-5-[4-(morpholinomethyl)phenyl]-1H-benzo[d] imidazol-2-amine]	≥ 10
Cn1cc(-c2ccc3[nH]c(Nc4c[nH]c5ccc(Cl)nc45)nc3c2)cn1 [Embodiment 102, N-(5-chloro-1H-pyrrolo[3,2-b]pyridin-3-yl)-5-(1-methyl-1H-pyrazol-4-yl)-1H-benzo[d]imidazole-2-amine]	≥ 10
C[Si](C)(C)C#Cc1ccc2[nH]cc(Nc3nc4cc(Oc5ccccc5)ccc4[nH]3)c2n1 [Embodiment 106, 5-phenoxy-N-{5-[(trimethylsilyl)ethynyl]-1H-pyrrolo[3,2-b]pyridin-3-yl}-1H-benzo[d]imidazol-2-amine]	1 to 10
Cc1cnc2[nH]cc(Nc3nc4cc(Oc5ccccc5)ccc4[nH]3)c2c1 [Embodiment 107, N-(5-methyl-1H-pyrrolo[2,3-b]pyridin-3-yl)-5-phenoxy-1H-benzo[d]imidazol-2-amine]	≥ 10
COCCn1c(Nc2c[nH]c3ccc(Cl)nc23)nc2cc(Cl)c(Cl)cc21 [Embodiment 110, 5,6-dichloro-N-(5-chloro-1H-pyrrolo[3,2-b]pyridin-3-yl)-1-(2-methoxyethyl)-1H-benzo[d] imidazole-2-amine]	1 to 10
N#Cc1cccc2[nH]c(Nc3c[nH]c4ccc(Cl)nc34)nc12 [Embodiment 113, 2-[(5-Chloro-1H-pyrrolo[3,2-b]pyridin-3-yl)amino]-1H-benzo [d]imidazole-4-carbonitrile]	≥ 10
CN1CCC(Oc2ccc3[nH]c(Nc4c[nH]c5ccc(Cl)nc45)nc3c2)CC1 [Embodiment 121, N-(5-Chloro-1H-pyrrolo[3,2-b]pyridin-3-yl)-5-[(1-methylpiveridin-4-yl)oxy]-1H-benzo[d]imidazole-2-amine]	1 to 10
CN(C)C(=O)c1cccc2c(Nc3nc4cc(Oc5ccccc5)ccc4[nH]3)c[nH]c12 [Embodiment 122, N,N-dimethyl-3-[(5-phenoxy-1H-benzo[d]imidazol-2-yl)amino]-1H-indole-7-carboxamide formate]	1 to 10
CC(C)n1c(Nc2c[nH]c3ccc(Cl)nc23)nc2cc(Cl)c(Cl)cc21 [Embodiment 132, 5,6-dichloro-N-(5-chloro-1H-pyrrolo[3,2-b]pyridin-3-yl)-1-isopropyl-1H-benzo[d]imidazol-2-amine]	1 to 10
CN(C)CCn1c(Nc2c[nH]c3ccc(Cl)nc23)nc2ccc(Oc3ccccc3)cc21 [Embodiment 134, N-(5-Chloro-1H-pyrrolo[3,2-b]pyridin-3-yl)-1-[2-(dimethylamino)ethyl]-6-phenoxy-1H-benzo[d] imidazole-2-amine diformate]	≥ 10
Clc1ccc2[nH]cc(Nc3nc4c5c(ccc4[nH]3)OCCO5)c2n1 [Embodiment 135, N-(5-chloro-1H-pyrrolo[3,2-b]pyridin-3-yl)-7,8-dihydro-3H-[1,4] dioxino[2′,3′:3, 4]benzo[1,2-d]imidazol-2-amine]	≥ 10
Cn1c(Nc2c[nH]c3ccc(Cl)nc23)nc2cc(F)c(F)cc21 [Embodiment 138, N-(5-Chloro-1H-pyrrolo[3,2-b]pyridin-3-yl)-5,6-difluoro-1-methyl-1H-benzo[d]imidazol-2-amine]	≥ 10
Clc1ccc2[nH]cc(Nc3nc4cc(OC5COC5)ccc4[nH]3)c2n1 [Embodiment 139, N-(5-Chloro-1H-pyrrolo[3,2-b]pyridin-3-yl)-5-(oxetan-3-yloxy)-1H-benzo[d]imidazol-2-amine]	≥ 10
COCCOc1ccc2[nH]c(Nc3c[nH]c4ccc(Cl)nc34)nc2c1 [Embodiment 140, N-(5-Chloro-1H-pyrrolo[3,2-b]pyridin-3-yl)-5-(2-methoxyethoxy)-1H-benzo[d]imidazol-2-amine]	≥ 10
Clc1ccc2[nH]cc(Nc3nc4cc5c(cc4[nH]3)OCCO5)c2n1 [Embodiment 141, N-(5-chloro-1H-pyrrolo[3,2-b]pyridin-3-yl)-6,7-dihydro-1H-[1,4] dioxino[2′,3′:4, 5]benzo[1,2-d]imidazol-2-amine]	1 to 10
Clc1ccc2[nH]cc(Nc3nc4cc(OC5CCOCC5)ccc4[nH]3)c2n1 [Embodiment 142, N-(5-Chloro-1H-pyrrolo[3,2-b]pyridin-3-yl)-5-[(tetrahydro-2H-pyran-4-yl)oxy)-1H-benzo[d] imidazol-2-amine]	≥ 10
COCCOc1cc2nc(Nc3c[nH]c4ccc(Cl)nc34)[nH]c2cc1OCCOC [Embodiment 143, N-(5-Chloro-1H-pyrrolo[3,2-b]pyridin-3-yl)-5,6-bis(2-methoxyethoxy)-1H-benzo[d]imidazol-2-amine]	≥ 10
CN(C)CC#Cc1ccc2[nH]c(Nc3c[nH]c4ccc(Cl)nc34)nc2c1 [Embodiment 146, N-(5-Chloro-1H-pyrrolo[3,2-b]pyridin-3-yl)-5-[3-(dimethylamino)prop-1-yn-1-yl]-1H-benzo[d] Imidazol-2-amine]	≥ 10
Clc1ccc2[nH]cc(Nc3nc4c(-c5cccnc5)cccc4[nH]3)c2n1 [Embodiment 147, N-(5-Chloro-1H-pyrrolo[3,2-b]pyridin-3-yl)-4-(pyridin-3-yl)-1H-benzo[d]imidazol-2-amine]	≥ 10
Clc1ccc2[nH]cc(Nc3nc4c(-c5ccncc5)cccc4[nH]3)c2n1 [Embodiment 148, N-(5-Chloro-1H-pyrrolo[3,2-b]pyridin-3-yl)-4-(pyridin-4-yl)-1H-benzo[d]imidazol-2-amine]	≥ 10
Clc1ccc2[nH]cc(Nc3nc4c(C5CCOCC5)cccc4[nH]3)c2n1 [Embodiment 150, N-(5-chloro-1H-pyrrolo[3,2-b]pyridin-3-yl)-4-(tetrahydro-2H-pyran-4-yl)-1H-benzo[d]imidazole-2-amine]	≥ 10
Cc1ccc2nc(Nc3c[nH]c4ccc(Cl)nc34)n(C)c2c1 [Embodiment 152, N-(5-Chloro-1H-pyrrolo[3,2-b]pyridin-3-yl)-1,6-dimethyl-1H-benzo [d]imidazol-2-amine]	≥ 10
Cn1c(Nc2c[nH]c3ccc(Cl)nc23)nc2cc(C3CCOCC3)ccc21 [Embodiment 153, N-(5-chloro-1H-pyrrolo[3,2-b]pyridin-3-yl)-1-methyl-5-(tetrahydro-2H-pyran-4-yl)-1H-benzo[d] imidazol-2-amine]	≥ 10
